# Literature values as cited in PMC8637765 (RSC Chemical Biology, 2021).
# Test system: cancer cells
compound,measurement,value
"O=C(Cc1ccccc1)Nc1nnc(CCSCCc2nnc(NC(=O)Cc3ccccc3)s2)s1 [BPTES, bis-2-(5-phenylacetamido-1,3,4-thiadiazol-2-yl)ethyl sulfide]",Growth inhibition at the cellular level,partial growth inhibition
O=C(Cc1cccc(OC(F)(F)F)c1)Nc1ccc(CCCCc2nnc(NC(=O)Cc3ccccn3)s2)nn1 [CB-839],Growth inhibition at the cellular level,partial growth inhibition
